US9326451B1, “Seed pillow for overcoming the limiting factors controlling rangeland reseeding success” (The United States of America, as represented by the …, priority 2012, dated 2016)

Experiments:
bluebunch wheatgrass [1] = test system: bluebunch wheatgrass; design: species or system Pseudoroegneria spicata; conditions: in vivo
Text: (§1) In this study, bluebunch wheatgrass was either left untreated, coated with activated carbon, or incorporated into a seed-pillow containing activated carbon. Source of activated carbon used in the study was Nuchar® powdered activated carbon (MWV, Richmond, Va.). Seeds were coated with activated carbon according to U.S. Patent application 2010/0093535. Seed pillows were formed by mixing dough containing by weight 22% activated carbon, 18.6% diatomaceous earth, 57.9% SELVOL-205 solution with 1% solids, and 1.2% seed. Pellets were extruded and cut into 3 mm thick hexagon pellets that were 13 mm in diameter, with each pillow containing eight pure live seeds.
(§2) Bluebunch wheatgrass and cheatgrass were sown in 14×14 cm pots at 500 pure live seeds m-2, and 1000 seeds m-2, respectively. After planting, pots were sprayed with 4, 6, 8, or 12 oz/acre of the pre-emergent herbicide imazapic, or left unsprayed. The study was arranged in a randomized block design with 8 replicates per treatment.

[2] = test system: cheatgrass (Bromus tectorum L.); test: Example 4: cheatgrass control by imazapic, pot study; format: in vivo
Text: as §1, §2

bluebunch wheatgrass [3] = test system: bluebunch wheatgrass; design: species or system Pseudoroegneria spicata; conditions: in vivo; remark: listed apart in the source
Text: (§3) The following example illustrates the ability of seed pillows to protect seeds from soil-active herbicide and use of beneficial biostimulants and super-absorbent polymer. In the study, treatments included untreated seed and four seed pillow treatments, including seed incorporated into a pillow containing 1) activated carbon, 2) activated carbon plus biostimulants, 3) activated carbon plus super-absorbent polymer, and 4) activated carbon plus biostimulants and super-absorbent polymer. Pellets were extruded and cut into 3 mm thick hexagon pellets that were 13 mm in diameter, with each pillow containing eight pure live seeds.
(§4) Bluebunch wheatgrass and cheatgrass were sown in 14×14 cm pots at 500 pure live seeds m-2, and 1000 seeds m-2, respectively. After planting, half of the pots in the study were sprayed with 8 oz/acre of the pre-emergent herbicide imazapic, or left unsprayed. The study was arranged in a randomized block design with 8 replicates per treatment.

cheatgrass = test: Example 5: cheatgrass control by imazapic, pot study; format: in vivo, Bromus tectorum; conditions: 8 oz/acre, pre-emergent spray after planting
Text: as §3, §4

[4] = test system: 'Anatone' bluebunch wheatgrass; conditions: in vivo
Protocol: (§5) Soil was obtained from a Wyoming big sagebrush (Artemisia tridentata Nutt. ssp. wyomingensis [Beetle & A. Young] S. L. Welsh)-steppe community type, located at the Northern Great Basin Experimental Range, 16-km southwest of Riley, Oreg. (43° 32′N, 118° 9′ W). Soil on the site has a silt-loam texture and is classified as a fine-loamy, mixed, frigid Aridic Haploxeroll (Soil Survey Staff 2012). Soil was excavated from a maximum depth of 25-cm, with the top 2-cm of soil and litter discarded to remove existing seeds. Excavated soil was used to fill square 14-cm wide by 14-cm deep growing pots that were placed in a grow-room at the Eastern Oregon Agriculture Research Center, located in Burns, Oreg., USA.
Species used in the study included the native bunchgrass ‘Anatone’ bluebunch wheatgrass and the non-native annual weed downy brome. Bluebunch wheatgrass was chosen because it is often a major component of native plant communities in the sage-steppe ecosystem of western North America, is commonly used in rangeland seeding efforts (see e.g., Ogle et al. 2010 Plant guide for bluebunch wheatgrass (Pseudoroegneria spicata). USDA-Natural Resources Conservation Service. Idaho and Washington Plant Materials Program. 5 p). […]

downy brome = test: Example 6: downy brome control by imazapic, grow-room pot study; format: in vivo
Protocol: as §5
Species used in the study included the native bunchgrass ‘Anatone’ bluebunch wheatgrass and the non-native annual weed downy brome. Bluebunch wheatgrass was chosen because it is often a major component of native plant communities in the sage-steppe ecosystem of western North America, is commonly used in rangeland seeding efforts (see e.g., Ogle et al. 2010 Plant guide for bluebunch wheatgrass (Pseudoroegneria spicata). USDA-Natural Resources Conservation Service. Idaho and Washington Plant Materials Program. 5 p). Like many grasses used for restoration, bluebunch wheatgrass is injured by imazapic applied at rates required for downy brome control (see e.g., Shinn and Thill 2004 Weed Technology 18:60-65). Germination potential of bluebunch wheatgrass and downy brome was 92% and 98%, respectively (as tested on blue blotter paper in 130-mm diameter petri dishes, with 25 seeds·dish−1 replicated four times per species).
Bluebunch wheatgrass seeds were untreated, coated with activated carbon, or incorporated into HPPs containing activated carbon. Pots with the sown seeds were sprayed with 0, 70, 105, 140, or 210 g acid equivalent (ae)·ha−1 (0, 4, 6, 8, or 12 oz·acre−1) of the pre-emergent herbicide imazapic (Panoramic 2SL, Alligare LLC, Opelika, Ala.), (3 seed treatments×5 herbicide application rates=15 experimental treatments). The study was arranged in a randomized complete block design with 8 replicates per treatment.
Each pot was seeded with 20 PLS (1000 PLS·m−2) of downy brome, and 10 PLS (500 PLS·m−2) of bluebunch wheatgrass. Two pods were added to each pot designated to receive HPPs. […] Response variables recorded at the conclusion of the study included: 1) plant density, 2) shoot height, and 3) oven dried (65° C. for 72-hrs) aboveground biomass.
Bluebunch wheatgrass and downy brome response data were analyzed separately in SAS (Version 9.3; SAS Institute, Cary, N.C.) using a two-way randomized complete block analysis of variance (ANOVA; Proc Mixed). […] Significance was determined at P<0.05.

[5] = averaged across the study, 47 days

Cc1cnc(C2=NC(=O)C(C)(C(C)C)N2)c(C(=O)O)c1 (centres unmarked) [imazapic]
bluebunch wheatgrass growth, untreated seed (FIG. 3B) (bluebunch wheatgrass [1]): growth was arrested | control of cheatgrass growth ([2]; all application rates (4, 6, 8, 12 oz/acre)): effectively controlled | cheatgrass growth (FIG. 3C) ([2]; imazapic at 8 oz/acre, bluebunch seed in activated carbon pillow): suppressed | cheatgrass growth (FIG. 3B) ([2]; soil treated at 10 oz/acre): growth was arrested | effect on non-treated bluebunch wheatgrass seed (bluebunch wheatgrass [3]): effectively controlled | control of cheatgrass growth (cheatgrass): effectively controlled | effect on untreated bluebunch wheatgrass [4]: impaired | control of downy brome (downy brome; all application rates (70, 105, 140, 210 g ae·ha−1)): effectively controlled | reduction of downy brome biomass (downy brome; [5]): 140.2 fold | reduction of downy brome density (downy brome; [5]): 6.6 fold | reduction of downy brome height (downy brome; [5]): 8.0 fold
